A short description of this series: Solubility of compound in safety solvent. The format is physicochemical. The conditions noted are these: for solubility in CHN: cyclohexanone (CHN); for solubility in PGME: propylene glycol monomethyl ether (PGME); for solubility in PGMEA: propylene glycol monomethyl ether acetate (PGMEA). As to the method: The compounds obtained in Synthesis Examples 1 to 6 and Synthesis 1 to 4 were evaluated for the solubility in propylene glycol monomethyl ether acetate (PGMEA), propylene glycol monomethyl ether (PGME) and cyclohexanone (CHN).
A: 4.0 wt %≦dissolved amount
B: 1.0 wt %≦dissolved amount<4.0 wt %
C: dissolved amount<1.0 wt %

Take `CC(C)c1ccc(C2c3cc(c(O)cc3O)C(c3ccc(C(C)C)cc3)c3cc(c(O)cc3O)C(c3ccc(C(C)C)cc3)c3cc(c(O)cc3O)C(c3ccc(C(C)C)cc3)c3cc2c(O)cc3O)cc1` (stereo not drawn) [CR-1A]: the “solubility in CHN” value is listed as “B (1.0 wt %≦dissolved amount<4.0 wt %)”, the “solubility in PGME” value is listed as “B (1.0 wt %≦dissolved amount<4.0 wt %)” and the “solubility in PGMEA” value is “C (dissolved amount<1.0 wt %)”.
Take `CC(C)Cc1ccc(C2c3cc(c(O)cc3O)C(c3ccc(CC(C)C)cc3)c3cc(c(O)cc3O)C(c3ccc(CC(C)C)cc3)c3cc(c(O)cc3O)C(c3ccc(CC(C)C)cc3)c3cc2c(O)cc3O)cc1` (stereo not drawn) [CR-2A]: the “solubility in CHN” value is listed as “B (1.0 wt %≦dissolved amount<4.0 wt %)”, the “solubility in PGME” value was “C (dissolved amount<1.0 wt %)” and the “solubility in PGMEA” value is given as “C (dissolved amount<1.0 wt %)”.
On to `Oc1cc(O)c2cc1C(c1ccc(-c3ccccc3)cc1)c1cc(c(O)cc1O)C(c1ccc(-c3ccccc3)cc1)c1cc(c(O)cc1O)C(c1ccc(-c3ccccc3)cc1)c1cc(c(O)cc1O)C2c1ccc(-c2ccccc2)cc1` (stereo not drawn) [CR-3A], for which the “solubility in CHN” value is given as “B (1.0 wt %≦dissolved amount<4.0 wt %)”, the “solubility in PGME” value was “C (dissolved amount<1.0 wt %)” and the “solubility in PGMEA” value is “C (dissolved amount<1.0 wt %)”.
Take `Oc1cc(O)c2cc1C(c1ccc(C3CCCCC3)cc1)c1cc(c(O)cc1O)C(c1ccc(C3CCCCC3)cc1)c1cc(c(O)cc1O)C(c1ccc(C3CCCCC3)cc1)c1cc(c(O)cc1O)C2c1ccc(C2CCCCC2)cc1` (stereo not drawn) [CR-4A]: the “solubility in CHN” value is “B (1.0 wt %≦dissolved amount<4.0 wt %)”, the “solubility in PGME” value is listed as “B (1.0 wt %≦dissolved amount<4.0 wt %)” and the “solubility in PGMEA” value is recorded as “C (dissolved amount<1.0 wt %)”.

Values taken from patent publication US20120164575A1, “CYCLIC COMPOUND, MANUFACTURING METHOD THEREFOR, RADIATION-SENSITIVE COMPOSITION, AND METHOD FOR FORMING A RESIST PATTERN” (MITSUBISHI GAS CHEMICAL COMPANY, INC., priority 2009, published 2012).
